Test results from patent US12163953B2, “P-phenylene ethynylene compounds as bioactive and detection agents” (STC.UNM, priority 2014, dated 2024).
Structures can show the parent of a compound that is named as a salt. Where two headings read alike, the source gives them in different places.

How the values were obtained:
[1] = system: B. anthracis Sterne spores; type: cell-based, Bacillus anthracis Sterne; conditions: within 90 minutes
[2] = system: B. atrophaeus spores; type: cell-based, Bacillus atrophaeus
[3] = system: B. atrophaeus vegetative cells; type: cell-based, Bacillus atrophaeus; conditions: 10 μg/mL
[4] = system: B. anthracis Sterne vegetative cells; type: cell-based, Bacillus anthracis Sterne; conditions: 10 μg/mL, light-activated PE
[5] = Absorbance and fluorescence of −1C with AChE inhibitors without LaCh (aggregation control); type: physicochemical; conditions: 5 uM −1C with 5 ug/mL inhibitor, no LaCh
Method: As shown in FIGS. 12A-C, it is clear that inhibition of AChE by several different inhibitors is apparent in the attenuated loss of fluorescence compared with the reference solution, with no inhibitor. […] FIGS. 13A-B illustrate (A) absorbance and (B) fluorescence (Ex: 370 nm) of 5 uM −1C with 5 ug/mL of either LaCh or one of the three AChE Inhibitors used in this study. […] Further, there is little overlap between the fluorescence of the TAE-1/IPE complex and that of the PE/LaCh complex.

[6] = Photophysical properties of PEs alone (excitation/emission spectra, fluorescence yield); type: physicochemical
Method: Excitation and emission spectra of PEs in phosphate buffer alone, with monomeric HEWL and with HEWL amyloids (8 h incubated) are shown in FIGS. 18A-H, and relevant photophysical properties are summarized in Table 1. FIGS. 18A-H illustrate excitation (A, B, C, D) and emission (right; E, F, G. H) spectra of PEs (A, E: PE1+; B, F: PE1−; C, G: PE2+; D, H: […]) alone (long dashed line) with HEWL monomers (short dashed line) and with HEWL amyloids (solid line); PE concentration: 500 nM, protein concentration: 5 μM monomer basis/0.25 mg/mL; emission and excitation wavelengths, respectively, were chosen as shown in Table 1 for each sample. A 10:1 molar ratio of protein to PE was used for these experiments. Absorbance spectra were taken, but background light scattering from insoluble amyloid aggregates made them difficult to interpret, so “fluorescence detected absorbance” in the form of excitation spectra was used instead. Normalized excitation and emission spectra, in which peak shifts and lineshape changes of spectra were somewhat easier to visualize, were used. […] PE1+ (FIG. 18E) had no change in wavelength or lineshape of emission spectrum, just a large increase in intensity when mixed with amyloids. The excitation spectra (FIGS. 18A, B, C, D) show a notable bathochromic shift for each PE in solution mixed with amyloid, of 23, 27, 35 and 29 nm for PE1+, PE2+, PE3+ and PE1−, respectively, observing only the low-energy band. The high-energy band, less relevant for imaging purposes, was also bathochromically shifted. […] PE1− had similar excitation spectrum (FIG. 18B) with monomer and amyloid, except for a large intensity difference.
(§1) For studies of fluorescence enhancement vs. protein incubation time, dyes were mixed with protein sample in phosphate buffer (10 mM, pH 7.4) at equal monomer concentration of 10 μM in the wells of a standard 96-well plate. Emission spectra were obtained using top read with a SpectraMax M2e plate-reading spectrophotometer (Molecular Devices, Sunnyvale, CA). Experiments were performed in duplicate and errors are reported as standard deviation. For analysis of bound PE excitation and emission spectra and protein-PE energy transfer, PEs (500 nM) were mixed with protein sample (5 μM, monomer basis) in phosphate buffer and the solution transferred to a quartz, fluorometry cuvette. Spectra were obtained on a PTI QuantaMaster 40 steady state spectrofluorometer (HORIBA Scientific, Edison, NJ).

[7] = molecular target: T1, HEWL fibrils incubated for different lengths of time (Gallus gallus, UniProt P00698); assay: Fluorescence enhancement of dyes versus HEWL incubation time; type: binding, hen
T1 construct: Lyophilized HEWL was dissolved at 10 mg/mL in 10 mM pH 3 sodium citrate buffer with 0.1 M NaCl; purchased Sigma-Aldrich; host or cells: hen egg white; fibrillised in house (pH 3, 70 °C, stirred)
T1 sequence (P00698 19-147): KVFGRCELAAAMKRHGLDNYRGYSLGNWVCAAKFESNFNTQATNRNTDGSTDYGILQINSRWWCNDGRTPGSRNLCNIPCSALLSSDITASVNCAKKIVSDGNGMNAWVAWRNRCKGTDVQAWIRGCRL
Method: Hen egg white lysozyme (HEWL) was used to form fibrillary amyloid aggregates for use in this study. […] For these experiments. HEWL (Sigma-Aldrich) was incubated at 70′C and a concentration of 350 μM in pH 3 sodium citrate buffer (10 mM) with 100 mM NaCl.
A plot of normalized fluorescence enhancement for all four PEs and Thioflavin T with HEWL fibrils incubated for different lengths of time is shown in FIG. 15. PE1+ and PE2+ track amyloid formation in roughly the same way as ThT, showing a sigmoidal curve with onset of a logarithmic growth phase occurring at the same time, around 1 hour of incubation. The plateau phase, as monitored by fluorescence of any of those three PEs or ThT, appeared at 2 hours incubation.
as §1

[8] = Absorbance/fluorescence spectroscopy and fluorescence quantum yield (comparative method) of PEs and PE/substrate aggregates; type: physicochemical
[9] = molecular target: T2, HEWL monomers (Gallus gallus, UniProt P00698); assay: Fluorescence interaction of PEs with HEWL monomers; type: binding, hen; conditions: HEWL monomers 5 μM/0.25 mg/mL
T2 construct: Hen egg white lysozyme and Thioflavin T were obtained from Sigma-Aldrich Chemical Company; purchased Sigma-Aldrich; host or cells: hen egg white
T2 sequence (P00698 19-147): as above
Method: Excitation and emission spectra of PEs in phosphate buffer alone, with monomeric HEWL and with HEWL amyloids (8 h incubated) are shown in FIGS. 18A-H, and relevant photophysical properties are summarized in Table 1. FIGS. 18A-H illustrate excitation (A, B, C, D) and emission (right; E, F, G. H) spectra of PEs (A, E: PE1+; B, F: PE1−; C, G: PE2+; D, H: PE3+) in phosphate buffer (PB, pH 7.4, 10 mM) alone (long dashed line) with HEWL monomers (short dashed line) and with HEWL amyloids (solid line); PE concentration: 500 nM, protein concentration: 5 μM monomer basis/0.25 mg/mL; emission and excitation wavelengths, respectively, were chosen as shown in Table 1 for each sample. […] Absorbance spectra were taken, but background light scattering from insoluble amyloid aggregates made them difficult to interpret, so “fluorescence detected absorbance” in the form of excitation spectra was used instead. […]
[formula] where x is PE concentration (with protein concentration fixed), y is PE fluorescence intensity. […] Fits to the data for the three cationic PEs produced Fmax values close to the observed saturation value, and the other two parameters are reported as calculated. […]
For studies of fluorescence enhancement vs. protein incubation time, dyes were mixed with protein sample in phosphate buffer (10 mM, pH 7.4) at equal monomer concentration of 10 μM in the wells of a standard 96-well plate. […]

[10] = molecular target: T3, HEWL amyloid fibrils (Gallus gallus, UniProt P00698); assay: Induced circular dichroism of PE-amyloid complexes; type: binding, hen; conditions: PEs 10 μM, HEWL 10 μM monomer basis
T3 construct: Lyophilized HEWL was dissolved at 10 mg/mL in 10 mM pH 3 sodium citrate buffer with 0.1 M NaCl; purchased Sigma-Aldrich; host or cells: hen egg white; fibrillised in house (pH 3, 70 °C, stirred)
T3 sequence (P00698 19-147): as above
Method: Circular dichroism measurements were performed to determine if the intrinsic chirality of the HEWL fibrils was transferred to the PE chromophore by a chiral backbone twist or an “excitonic” chiral supramolecular aggregate. CD spectroscopy (CPEs in PB with HEWL monomer and with HEWL amyloid; performed for (a): PE1+; (b): PE1−; (c): PE2+; (d): PE3+; PEs 10 μM, HEWL 10 μM monomer basis/0.5 mg/mL) indicated induced circular dichroism of PEs when bound to HEWL amyloids. As expected, no PE had optical activity by itself in phosphate buffer solution and none of the PEs had any CD with HEWL monomer, including PE1−. […] PE2+ and PE3+ gave rise to similar CD spectra, with more intense bands in the spectrum for PE3+.
PEs and protein samples were diluted in phosphate buffer, gently vortexed, and read in a 1 mm pathlength quartz CD cuvette using an Aviv 410 CD spectrometer (Aviv Biomedical, Lakewood, NJ), 15 s averaging time. A blank spectrum (PB only) was subtracted from each sample to remove background activity. Error bars are standard deviation over multiple reads of a single sample as reported by the instrument.

[11] = molecular target: T4, HEWL amyloids (Gallus gallus, UniProt P00698); assay: Excitation and emission spectra of PEs with HEWL amyloids; type: binding, hen; conditions: PE 500 nM, HEWL amyloid 5 μM monomer basis
T4 construct: Lyophilized HEWL was dissolved at 10 mg/mL in 10 mM pH 3 sodium citrate buffer with 0.1 M NaCl; purchased Sigma-Aldrich; host or cells: hen egg white; fibrillised in house (pH 3, 70 °C, stirred)
T4 sequence (P00698 19-147): as above
Method: Excitation and emission spectra of PEs in phosphate buffer alone, with monomeric HEWL and with HEWL amyloids (8 h incubated) are shown in FIGS. 18A-H, and relevant photophysical properties are summarized in Table 1. FIGS. 18A-H illustrate excitation (A, B, C, D) and emission (right; E, F, G. H) spectra of PEs (A, E: PE1+; B, F: PE1−; C, G: PE2+; D, H: PE3+) in phosphate buffer (PB, pH 7.4, 10 mM) alone (long dashed line) with HEWL monomers (short dashed line) and with HEWL amyloids (solid line); PE concentration: 500 nM, protein concentration: 5 μM monomer basis/0.25 mg/mL; emission and excitation wavelengths, respectively, were chosen as shown in Table 1 for each sample. A 10:1 molar ratio of protein to PE was used for these experiments. Absorbance spectra were taken, but background light scattering from insoluble amyloid aggregates made them difficult to interpret, so “fluorescence detected absorbance” in the form of excitation spectra was used instead. Normalized excitation and emission spectra, in which peak shifts and lineshape changes of spectra were somewhat easier to visualize, were used. […] PE1+ (FIG. 18E) had no change in wavelength or lineshape of emission spectrum, just a large increase in intensity when mixed with amyloids. The excitation spectra (FIGS. 18A, B, C, D) show a notable bathochromic shift for each PE in solution mixed with amyloid, of 23, 27, 35 and 29 nm for PE1+, PE2+, PE3+ and PE1−, respectively, observing only the low-energy band. The high-energy band, less relevant for imaging purposes, was also bathochromically shifted. […] PE1− had similar excitation spectrum (FIG. 18B) with monomer and amyloid, except for a large intensity difference.
Lyophilized HEWL was dissolved at 10 mg/mL in 10 mM pH 3 sodium citrate buffer with 0.1 M NaCl. The solution was incubated in a 70C oil bath and magnetically stirred at 250 rpm for 12 h, and aliquots were withdrawn at half-hour intervals. […] Half of each aliquot was immediately diluted into pH 7.4 phosphate buffer to prevent further influence of acidic conditions and stored at 4C.
as §1

[12] = phosphate buffer pH 7.4, 10 mM, PE 500 nM

## C[N+](C)(C)CCOc1ccc(C#CC2=CC=C(C#Cc3ccc(OCC[N+](C)(C)C)cc3)C2)cc1.I [EO-PE (Th,C2)]
[1]; 20 ng PE/spore, light-activated PE
  killing of spores: 99%
[1]; absence of UVA light
  spores induced to germinate: 81%
  spores not killed that germinate into viable colony-forming vegetative cells (of all spores): 72%
[2]
  effect of increasing PE concentration on death or germination of spores: no increased effect
  spores in which the water influx event progressed to stain uptake matching vegetative cells (germination): 39%
  spores still fluorescing like untreated spores (S gate): 61%
  spores that successfully germinate: 15%
[3]; 1 hour, light-activated (UVA)
  cell death: 99%
[3]; 1 hr, dark
  uptake of PI relative to untreated cells: increased tenfold
[3]; 1 hr, in the absence of light
  cells killed: 73%
[4]; within 30 minutes
  log reduction of vegetative cells: ~4 log
[4]; within 90 minutes
  log reduction of vegetative cells: 5 log

## COc1ccc(C(=O)NCc2ccc(OCCN(C)C)cc2)cc1OC [Itopride, N-[[4-[2-(Dimethylamino)ethoxy]phenyl]methyl]-3,4-dimethoxy benzamidehydrochloride]
[5]
  aggregation induced with −1C: no significant aggregation

## CCC1(c2cccc(O)c2)CCCCN(C)C1.Cl (stereo not shown) [Meptazinol, 3-(3-ethylhexahydro-1-methyl-1H-azepin-3-yl)-phenol hydrochloride]
[5]
  aggregation induced with −1C: no significant aggregation

## CCOC(=O)c1ccc(C#Cc2cc(OCCS(=O)(=O)O)c(C#Cc3ccc(C(=O)OCC)cc3)cc2OCCS(=O)(=O)O)cc1 [PE1−]
[6]; H2O
  λem (H2O): 454 nm
[6]; phosphate buffer
  λem (PB): 454 nm
[6]; [12]
  λex (PB), high-energy band: 314 nm
  λex (PB), low-energy band: 370 nm
[7]; equimolar concentrations, 10 μM
  fluorescence enhancement with monomeric species versus amyloid: greater fluorescence enhancement when mixed with monomeric species than with amyloid
[8]; 5 uM PE with 32 uM LaCh
  enhancement of fluorescence quantum yield, LaCh complex versus PE alone: 66 times
  fluorescence quantum yield of aggregate with LaCh: 0.991
[8]; +2C with DLPG, −1C with LaCh
  centre of structured emission upon aggregation with substrate: 442 nm
[8]; in water, corrected value of this study
  fluorescence quantum yield, PE alone: 0.015
[9]
  binding to HEWL monomers: linear and non-saturable
[10]
  induced circular dichroism with HEWL amyloid: strong induced CD with a negative Cotton effect
[11]
  bathochromic shift of excitation spectrum, low-energy band, with amyloid: 29 nm
[11]; PB
  λem (PB w/ HEWL): 439 nm
  λex (PB w/HEWL), high-energy band: 327 nm
  λex (PB w/HEWL), low-energy band: 399 nm

## C[N+](C)(C)CCOC(=O)c1ccc(Oc2nc(Oc3ccc(C(=O)OCC[N+](C)(C)C)cc3)nc(Oc3ccc(C(=O)OCC[N+](C)(C)C)cc3)n2)cc1.[I-].[I-].[I-] [TAE-1]
[5]
  aggregation induced with −1C: red-shifted absorbance and a strongly red-shifted and broadened green fluorescence

## Cc1ccc2c(c1)sc(-c1ccc(N(C)C)cc1)[n+]2C.[Cl-] [ThT, Thioflavin T, reference compound]
[7]; dye 10 μM, HEWL 10 μM monomer basis
  HEWL incubation time at which the plateau phase of fluorescence enhancement appears: 2 h
